What was measured:
Assay type in all cases: cell-based
[1] = tested on: recombinant CHO cell line; assay: tc-uPA activity in culture of recombinant CHO cells, chromogenic assay (Pefachrome UK); details: for Activity of tc-uPA: 1 L Spinner-flask culture, 37° C., 5 days; for Activity on the chromogenic substrate: average of four fermentations
Protocol: (§1) At first, the optimal conditions related to butyrate concentration and temperature in a laboratory scale were determined. Preliminary experiments aimed at optimizing the Na-butyrate concentration were performed in a 1 L culture of the recombinant CHO cell line (1×10^6 cells/ml), in order to achieve the best tc-uPA (HMW and LMW) production and the higher cell viability after 5 days of cultivation in spinner-flasks.
(§2) In table 1 are reported the cell viability and the uPA yield after 5 days cultivation in 1 L Spinner-flask culture at 37° C. and at different Na-butyrate concentrations. uPA activity was followed by a chromogenic assay using the Pefachrome® UK (54-46) (Pentapharm, LTD, Basel, Switzerland) as chromogenic substrate, according to the manufacturer's instructions; the cell viability was followed every day and measured microscopically after Trypan blue dye-exclusion method, as described in Doyle et al. A, Griffiths, J B and Newell, D G (Eds.) (1994), in “Cell & Tissue Culture: Laboratory Procedures”. John Wiley & Sons. New York.
(§3) A second set of experiments was performed at 1.2 mM butyrate, in a 5-days fermentation to determine the optimal temperature in a 2 L culture (1.5-2×10^6 cells/ml) of the recombinant CHO cell line in bioreactor.
When the cellular density reached values of about 2×10^6 living cells/ml, the cells were separated from the exhausted medium by tangential filtration (or centrifugation). Cells were then resuspended in the bioreactor in the same original volume of fresh medium CHOMaster® with the addition of sodium butyrate to achieve a final concentration of 1.2 mM.
The production of active u-PA (tc-UPA HMW and LMW) was monitored by a chromogenic test on a specific substrate, Pefachrome® UK. A progressive increase of the activity was observed up to maximal values as high as 7000 IU/ml, achieved after 4-5 days of fermentation. At this point the cells were harvested and subsequently discarded and the exhausted culture medium, containing tc-uPA, was further processed for purification.

[2] = tested on: recombinant CHO cell line; assay: Cell viability of recombinant CHO culture, Trypan blue dye-exclusion
Protocol: as §1, §2, §3

[3] = tested on: recombinant CHO cell line; assay: tc-uPA activity in culture of recombinant CHO cells, chromogenic assay (Pefachrome UK); details: 1.2 mM butyrate, 32° C., after 12 days, 2 L bioreactor
[4] = tested on: recombinant CHO cell line; assay: Cell viability of recombinant CHO culture, Trypan blue dye-exclusion; details: 1.2 mM butyrate, 32° C., after 12 days, 2 L bioreactor

SMILES: CCCC(=O)[O-].[Na+] [Na-Butyrate, sodium butyrate]
- Activity of tc-uPA ([1]; 0.6 mM Na-Butyrate): 526 IU/ml
- Activity of tc-uPA ([1]; 1.2 mM Na-Butyrate): 959 IU/ml
- Activity of tc-uPA (5 days cultivation) ([1]; 1.2 mM Na-Butyrate, 32° C., 2 L bioreactor): 800 IU/ml
- Activity of tc-uPA (5 days cultivation) ([1]; 1.2 mM Na-Butyrate, 34° C., 2 L bioreactor): 5043 IU/ml
- Activity of tc-uPA (5 days cultivation) ([1]; 1.2 mM Na-Butyrate, 37° C. (control), 2 L bioreactor): 1830 IU/ml
- maximal activity on Pefachrome UK ([1]; 1.2 mM sodium butyrate, 34° C., after 4-5 days of fermentation, 2 L bioreactor): ≤ 7000 IU/ml
- Activity of tc-uPA ([1]; 2.5 mM Na-Butyrate): 361 IU/ml
- Activity on the chromogenic substrate ([1]; 1 day after addition of 1.2 mM Na-butyrate, 34° C., 2 L bioreactor): 155 ± 23%
- Activity on the chromogenic substrate ([1]; 2 days after addition of 1.2 mM Na-butyrate, 34° C., 2 L bioreactor): 662 ± 32%
- Activity on the chromogenic substrate ([1]; 3 days after addition of 1.2 mM Na-butyrate, 34° C., 2 L bioreactor): 1995 ± 13%
- Activity on the chromogenic substrate ([1]; 4 days after addition of 1.2 mM Na-butyrate, 34° C., 2 L bioreactor): 3170 ± 23%
- Activity on the chromogenic substrate ([1]; 5 days after addition of 1.2 mM Na-butyrate, 34° C., 2 L bioreactor): 5043 ± 13%
- Cell viability ([2]; 0.6 mM Na-Butyrate, 1 L Spinner-flask culture, 37° C., 5 days): 83%
- Cell viability ([2]; 1.2 mM Na-Butyrate, 1 L Spinner-flask culture, 37° C., 5 days): 76%
- Cell viability ([2]; 1.2 mM Na-Butyrate, 32° C., 5 days, 2 L bioreactor): 84%
- Cell viability ([2]; 1.2 mM Na-Butyrate, 34° C., 5 days, 2 L bioreactor): 67%
- Cell viability ([2]; 1.2 mM Na-Butyrate, 37° C. (control), 5 days, 2 L bioreactor): 53%
- Cell viability ([2]; 2.5 mM Na-Butyrate, 1 L Spinner-flask culture, 37° C., 5 days): 56%
- Cell viability ([2]; 1 day after addition of 1.2 mM Na-butyrate, 34° C., 2 L bioreactor, average of four fermentations): 87 ± 6%
- Cell viability ([2]; 2 days after addition of 1.2 mM Na-butyrate, 34° C., 2 L bioreactor, average of four fermentations): 81 ± 12%
- Cell viability ([2]; 3 days after addition of 1.2 mM Na-butyrate, 34° C., 2 L bioreactor, average of four fermentations): 78 ± 15%
- Cell viability ([2]; 4 days after addition of 1.2 mM Na-butyrate, 34° C., 2 L bioreactor, average of four fermentations): 72 ± 14%
- Cell viability ([2]; 5 days after addition of 1.2 mM Na-butyrate, 34° C., 2 L bioreactor, average of four fermentations): 67 ± 10%
- activity (tc-uPA) [3]: 3961 U/ml
- Cell viability [4]: 63%

Reference: patent publication US20030040095A1, “Method for the production of pharmaceutically active recombinant proteins” (priority 2001, published 2003)
